The target in assay [1] is NC(11-55) (Human immunodeficiency virus type 1, UniProt P12493). The assay is described as follows: NC inhibition assay (NC-induced cTAR DNA destabilization, fluorescence). It counts as biochemical, HIV-1. Particulars: for inhibition at 100 µM: single point screening, positive = >25% inhibition at 100µM. A digest of the protocol: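 Doubly labelled cTAR (0.1 µM, Alexa488/Dabcyl) pre-complexed with 1 µM Zn-loaded NC(11-55) for 15 min, then compound added for a further 15 min; run at 20 °C in Tris-HCl pH 7.5, 30 mM NaCl, 0.2 mM MgCl2. Fluorescence read at ex 480/em 520 nm. IC50 taken from dose-response fit of % inhibition of NC-induced fluorescence increase.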

In assay [2] the test system is HIV-1 reference strain NL4-3. The assay is described as follows: MonoCycle assay (TZM-bl cells). Type of assay: cell-based. Particulars: Human immunodeficiency virus 1, NL43, TZM-bl, 48 h, read-out: Mono Cycle IC50 nM. As to the method:
MonoCycle assay is a cell based assay allowing the evaluation of antiviral activity of HIV-1 inhibitors targeting the early steps of HIV-1 life cycle such as entry, uncoating of viral particles, reverse transcription and integration. The assay consists in the infection of TZM-bl cells (20,000/well) with the HIV-1 reference strain NL4-3 in presence of serial five-fold dilutions of the investigational inhibitors. After 48 hours, cells were lysed adding 40 µl of Glo Lysis Buffer (Promega) to each well for 5 minutes, then 40 µl of Brighy-Glo Luciferase Reagent (Promega) were added to each well for relative luminescence units (RLU) counting using Glo-Max Multi Detection System (Promega). RLU values from each well were elaborated using the GraphPad v5.0 software to calculate the IC50 of each compound.

In assay [3] the target is T1, full length (1-55) HIV-1 NCp7 (Human immunodeficiency virus type 1 group M subtype B, UniProt P12493).
T1 construct: recombinant full length (1-55) HIV-1 NCp7 proteins; made in house
Nature of the assay: Electromobility Shift Assay (EMSA), competition for ssDNA binding. Particulars: NCp7 300 nM, M13mp18 ssDNA; positive = >25% inhibition at 100µM. Put shortly:
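Recombinant NL4-3 NCp7 (300 nM in the pre-mix) was combined with compound in 20 mM Tris-HCl pH 7.4, 2 mM MgCl2, 100 mM NaCl, 1 mM DTT, then M13mp18 ssDNA was added for 25 min at 37 °C. Complexes were run on 1% agarose/0.5x TBE and stained with SybrGold. IC50 is the concentration at which bound ssDNA migrated 50% of the bound–unbound distance (triplicate).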
(In general: A gel shift assay detects complexes by their altered migration in electrophoresis.)

Our source for the IC50, inhibition and EMSA screening results values is EP3290412A1, “HIV-1 NUCLEOCAPSID INHIBITORS” (Università degli Studi di Siena, priority 2016, dated 2018).

Broadly, the IC50 is the concentration that gives 50% inhibition. By inhibition is commonly meant the share of the control response that was lost under treatment.

Read-outs that look alike come from different tables or passages of the source.

Consider `CC(NC(=O)c1nc(-c2cc(Cl)ccn2)nc(O)c1O)C1CCC(F)(F)CC1` (stereo not shown) [Compound 87, 2-(4-chloropyridin-2-yl)-N-(1-(4,4-difluorocyclohexyl)ethyl)-5,6-dihydroxypyrimidine-4-carboxamide], for which, in assay [1], it took 41 µM to reach half-maximal inhibition (IC50) and the inhibition at 100 µM is over 25%. The IC50 in assay [2] is over 50000 nM. Moreover, the EMSA screening results in assay [3] is recorded as “Negative”.
For the compound `C[C@@H](NC(=O)c1nc(-c2ccc(CO)cn2)nc(O)c1O)C1CCCCC1` [Compound 55, (R)-N-(1-cyclohexylethyl)-5,6-dihydroxy-2-(5-(hydroxymethyl)pyridin-2-yl)pyrimidine-4-carboxamide], the half-maximal inhibitory concentration (IC50) in assay [1] (cTAR DNA 0.1 µM, 1 µM NC(11-55), 20 °C, pH 7.5, read-out: NC inhibition IC50) stood at 40 µM; in assay [2], 9050 nM. The compound also returned an inhibition at 100 µM in assay [1] of over 25%. The EMSA screening results in assay [3] is reported as “Positive (A compound showing >25% inhibition when tested at 100µM concentration is considered as "positive")”.
For `O=C(NCCCC1CCCCC1)c1nc(-c2ccccn2)nc(O)c1O` [Compound 8, N-(3-cyclohexylpropyl)-5,6-dihydroxy-2-(pyridin-2-yl)pyrimidine-4-carboxamide], the IC50 in assay [1] worked out at 27.5 µM; in assay [2], 4540 nM. This compound showed an inhibition at 100 µM in assay [1] of over 25%. Moreover, the EMSA screening results in assay [3] is recorded as “Positive (A compound showing >25% inhibition when tested at 100µM concentration is considered as "positive")”.
`COc1ccnc(-c2nc(O)c(O)c(C(=O)NC3CCC(C)(C)CC3)n2)c1` [Compound 77, N-(4,4-dimethylcyclohexyl)-5,6-dihydroxy-2-(4-methoxypyridin-2-yl)pyrimidine-4-carboxamide]: in assay [1], the 50% inhibitory concentration (IC50) stood at 23.5 µM and the inhibition at 100 µM is over 25%. Moreover, in assay [2], the IC50 stood at 17300 nM. Further, in assay [3], the EMSA screening results is “Positive (A compound showing >25% inhibition when tested at 100µM concentration is considered as "positive")”.
In assay [1], `CC(C)(CNC(=O)c1nc(-c2ccccn2)nc(O)c1O)C1CCCC1` [Compound 63, N-(2-cyclopentyl-2-methylpropyl)-5,6-dihydroxy-2-(pyridin-2-yl)pyrimidine-4-carboxamide] registered an IC50 of 7 µM and an inhibition at 100 µM of over 25%. In addition, in assay [2], the half-inhibitory concentration (IC50) stood at 11800 nM. Further, the EMSA screening results in assay [3] is given as “Positive (A compound showing >25% inhibition when tested at 100µM concentration is considered as "positive")”.
Taken in the same sequence, the figures for `C[C@@H](NC(=O)c1nc(-c2ccc(CN3CCCC3)cn2)nc(O)c1O)C1CCCCC1` [Compound 93, (R)-N-(1-cyclohexylethyl)-5,6-dihydroxy-2-(5-(pyrrolidin-1-ylmethyl)pyridin-2-yl)pyrimidine-4-carboxamide] were 50 µM, over 25%, over 50000 nM and “Negative”.
On to `C[C@@H](NC(=O)c1nc(-c2ccc(C(=O)OCc3ccccc3)cn2)nc(O)c1O)C1CCCCC1` [Compound 21, benzyl (R)-6-(4-((1-cyclohexylethyl)carbamoyl)-5,6-dihydroxypyrimidin-2-yl)nicotinate], for which the 50% inhibitory concentration (IC50) in assay [1] is 10 µM; in assay [2], over 50000 nM. This compound also returned an inhibition at 100 µM in assay [1] of over 25%. Moreover, the EMSA screening results in assay [3] is recorded as “Positive (A compound showing >25% inhibition when tested at 100µM concentration is considered as "positive")”.
As to `C[C@@H](NC(=O)c1nc(-c2cc(CCNCc3cccn3C)ccn2)nc(O)c1O)C1CCCCC1` [Compound 91, (R)-N-(1-cyclohexylethyl)-5,6-dihydroxy-2-(4-(2-(((1-methyl-1H-pyrrol-2-yl)methyl)amino)ethyl)pyridin-2-yl)pyrimidine-4-carboxamide], in assay [1], the IC50 was 12 µM and the inhibition at 100 µM is over 25%. In assay [2], the 50% inhibitory concentration (IC50) is 2150 nM. Also, the EMSA screening results in assay [3] was “Positive (A compound showing >25% inhibition when tested at 100µM concentration is considered as "positive")”.
With `C[C@@H](NC(=O)c1nc(-c2cc(C(F)(F)F)ccn2)nc(O)c1O)C1CCCCC1` [Compound 27, (R)-N-(1-cyclohexylethyl)-5,6-dihydroxy-2-(4-(trifluoromethyl)pyridin-2-yl)pyrimidine-4-carboxamide], in assay [1], the concentration for half-maximal inhibition (IC50) is 12.5 µM and the inhibition at 100 µM is over 25%. Besides, the IC50 in assay [2] is over 50000 nM. For the same compound, the EMSA screening results in assay [3] is “Positive (A compound showing >25% inhibition when tested at 100µM concentration is considered as "positive")”.
In the case of `C[C@@H](NC(=O)c1nc(-c2ccc3ccccc3n2)nc(O)c1O)C1CCCCC1` [Compound 22, (R)-N-(1-cyclohexylethyl)-5,6-dihydroxy-2-(quinolin-2-yl)pyrimidine-4-carboxamide], the figures for the IC50 in assay [1] and in assay [2] were 3 µM and 100000 nM, respectively. This compound also returned an inhibition at 100 µM in assay [1] of over 25%. Moreover, the EMSA screening results in assay [3] is “Positive (A compound showing >25% inhibition when tested at 100µM concentration is considered as "positive")”.
In assay [1], `O=C(OCC1CCCCC1)c1nc(-c2ccccn2)nc(O)c1O` [Compound 2, cyclohexylmethyl 5,6-dihydroxy-2-(pyridin-2-yl)pyrimidine-4-carboxylate] returned a half-inhibitory concentration (IC50) of 74 µM and an inhibition at 100 µM of over 25%. Also, the IC50 in assay [2] is over 50000 nM. The EMSA screening results in assay [3] is “Negative”.
`O=C(OCCCC1CCCCC1)c1nc(-c2ccccn2)nc(O)c1O` [Compound 14, 3-cyclohexylpropyl 5,6-dihydroxy-2-(pyridin-2-yl)pyrimidine-4-carboxylate]: in assay [1], half-maximal inhibition (IC50) was put at 27.5 µM and the inhibition at 100 µM is over 25%. The IC50 in assay [2] is over 50000 nM. Besides, the EMSA screening results in assay [3] is listed as “Negative”.
Turning to `Cc1cccnc1-c1nc(O)c(O)c(C(=O)OCC2CCCCC2)n1` [Compound 10, cyclohexylmethyl 5,6-dihydroxy-2-(3-methylpyridin-2-yl)pyrimidine-4-carboxylate], in assay [1], the half-maximal inhibitory concentration (IC50) was 55 µM and the inhibition at 100 µM is over 25%. Besides, in assay [2], the IC50 was over 50000 nM. Further, in assay [3], the EMSA screening results is recorded as “Negative”.
In assay [1], `Cc1ccnc(-c2nc(O)c(O)c(C(=O)N[C@@H](C)C3CCCCC3)n2)c1` [Compound 79, (S)-N-(1-cyclohexylethyl)-5,6-dihydroxy-2-(4-methylpyridin-2-yl)pyrimidine-4-carboxamide] registered an IC50 of 41 µM and an inhibition at 100 µM of over 25%. For the same compound, the IC50 in assay [2] worked out at 2350 nM. The EMSA screening results in assay [3] is “Positive (A compound showing >25% inhibition when tested at 100µM concentration is considered as "positive")”.
In the case of `Cc1cccnc1-c1nc(O)c(O)c(C(=O)N[C@@H](C)C2CCCCC2)n1` [Compound 39, (S)-N-(1-cyclohexylethyl)-5,6-dihydroxy-2-(3-methylpyridin-2-yl)pyrimidine-4-carboxamide], the 50% inhibitory concentration (IC50) was 27 µM in assay [1] and over 50000 nM in assay [2]. The same compound displayed an inhibition at 100 µM in assay [1] of over 25%. Moreover, the EMSA screening results in assay [3] is “Negative”.
On to `C[C@H](NC(=O)c1nc(-c2ccccn2)nc(O)c1O)C1CCCCC1` [Compound 38, (S)-N-(1-cyclohexylethyl)-5,6-dihydroxy-2-(pyridin-2-yl)pyrimidine-4-carboxamide], for which the IC50 was determined as 46.5 µM in assay [1] and 11200 nM in assay [2]. In assay [1], this compound had an inhibition at 100 µM of over 25%. For the same compound, the EMSA screening results in assay [3] is given as “Positive (A compound showing >25% inhibition when tested at 100µM concentration is considered as "positive")”.
`O=C(NCC1CC1)c1nc(-c2ccccn2)nc(O)c1O` [Compound 3, N-(cyclopropylmethyl)-5,6-dihydroxy-2-(pyridin-2-yl)pyrimidine-4-carboxamide]: in assay [1], the IC50 is 390 µM and the inhibition at 100 µM is over 25%. Also, the IC50 in assay [2] was 27400 nM. The EMSA screening results in assay [3] is listed as “Negative”.
Regarding `C[C@H](NC(=O)c1nc(-c2nccc3ccccc23)nc(O)c1O)C1CCCCC1` [Compound 80, (S)-N-(1-cyclohexylethyl)-5,6-dihydroxy-2-(isoquinolin-1-yl)pyrimidine-4-carboxamide], the IC50 in assay [1] came to 11 µM; in assay [2], 2850 nM. The compound also gave an inhibition at 100 µM in assay [1] of over 25%. Also, the EMSA screening results in assay [3] was “Positive (A compound showing >25% inhibition when tested at 100µM concentration is considered as "positive")”.
For `C[C@H](CC1CCCCC1)NC(=O)c1nc(-c2ccccn2)nc(O)c1O` [Compound 64, (R)-N-(1-cyclohexylpropan-2-yl)-5,6-dihydroxy-2-(pyridin-2-yl)pyrimidine-4-carboxamide], the concentration for half-maximal inhibition (IC50) in assay [1] stood at 14.5 µM; in assay [2] it was 23700 nM. In addition, the inhibition at 100 µM in assay [1] is over 25%. Moreover, the EMSA screening results in assay [3] is listed as “Positive (A compound showing >25% inhibition when tested at 100µM concentration is considered as "positive")”.
